Laboratory results from patent US7781473B2, “Heterocycle derivatives useful as selective androgen receptor modulators (SARMS)” (J & J Pharmaceutical Research & Development, LLC., priority 2004, dated 2010).

Test system: castrated male Sprague Dawley rats
Assay: Ventral Prostate and Levator ani Weight in vivo Assay (agonist, stimulation of tissue weight)
Design: species or system rat; key: A compound was designated as agonist active if it produced greater than or equal to 20% stimulation of levator ani at 30 mg/kg; they are listed herein as “inactive” as they did not meet the specified criteria defined above; A designation of “toxic” indicates that the compound exhibited toxicity in the rats tested
Details: mature castrated rats, test compound oral gavage up to 30 mg/kg once daily for 14 days, vehicle = 0%, testosterone propionate = 100%; for % levator ani Stimulation: levator ani wet weight; for % Prostate Stimulation: ventral prostate wet weight
Experimental: Ventral Prostate and Levator ani Weight in vivo Assay
Mature (150 to 200 g) castrated male Sprague Dawley rats (Charles River) were treated once daily for 14 days with test compound (usually administered by oral gavage at up to the desired dosage, up to 30 mg/kg in a volume of 1 mL, in 30% cyclodextrin or 0.5% methylcellulose vehicle), or with testosterone propionate (administered subcutaneously by injection at the nape of the neck at 5 mg/kg, in a volume of 0.1 mL in sesame oil), or with vehicle (1 mL of 30% cyclodextrin or 0.5% methylcellulose, given orally). On the fifteenth day, the rats were euthanized by asphyxiation in carbon dioxide. Ventral prostates and levator ani muscles were removed and their wet weights determined.
Test compound activity was determined as the percent stimulation of tissue weight, with the vehicle-treated control group set to zero percent and the testosterone alone-treated control group set to 100%. A compound was designated as agonist active if it produced greater than or equal to 20% stimulation of levator ani at 30 mg/kg.
Representative compounds of the present invention were tested according to the procedure described, with results as listed in Table 10 below.

SMILES | % levator ani Stimulation | % Prostate Stimulation
CC1(C(=O)NCc2ccc(S(C)(=O)=O)cc2)CC(C(F)(F)F)=NN1 (stereo not drawn) [Compound 27, 3-Methyl-5-trifluoromethyl-3,4-dihydro-2H-pyrazole-3-carboxylic acid 4-methanesulfonyl-benzylamide] | inactive | inactive
CC1(C(=O)Nc2ccc(C#N)c(C(F)(F)F)c2)CC(C(F)(F)C(F)(F)F)=NN1 (stereo not drawn) [Compound 98, 3-Methyl-5-pentafluoroethyl-3,4-dihydro-2H-pyrazole-3-carboxylic acid (4-cyano-3-trifluoromethyl-phenyl)-amide] | active | active
CC1CC(C(=O)Nc2ccc(C#N)c(C(F)(F)F)c2)(C(F)(F)F)N=N1 (stereo not drawn) [Compound 114, 5-Methyl-3-trifluoromethyl-4,5-dihydro-3H-pyrazole-3-carboxylic acid (4-cyano-3-trifluoromethyl-phenyl)-amide] | inactive | inactive
CC1(C(=O)N(C(=O)C(F)(F)F)c2ccc(C#N)c(C(F)(F)F)c2)CC(C(F)(F)F)=NN1 (stereo not drawn) [Compound 115, 3-Methyl-5-trifluoromethyl-3,4-dihydro-2H-pyrazole-3-carboxylic acid (4-cyano-3-trifluoromethyl-phenyl)-(2,2,2-trifluoro-acetyl)-amide] | inactive | inactive
CC1(C(=O)Nc2ccc(C#N)c(C(F)(F)F)c2)CC(C2CCCC2)=NN1 (stereo not drawn) [compound 78] | inactive | inactive
CSCCC1=NNC(C)(C(=O)Nc2ccc(C#N)c(C(F)(F)F)c2)C1 (stereo not drawn) [compound 79] | inactive | inactive
